In brackets after ≈: the same amount, converted by molar mass. Where a name gives a salt, the structure may show the parent alone.
Tested on: wild-type E. coli
Experiment: Sensitization of wild-type E. coli toward antibiotics (MIC of antibiotic with/without sensitizer)
Assay type: cell-based, Escherichia coli
Settings: not given
Procedure: Bacteria were cultured with the antibiotic at various concentrations in the presence or absence of bacterial sensitizer for 24 hours at 37° C. Bacterial growth density was determined by measuring OD600 (absorbance measured at a wavelength of 600 nm). […]
The formula for calculating FIC is shown below: […]

Structure (SMILES)	Minimal concentration achieving 10-fold sensitization of E. coli toward erythromycin [μg/ml]
N=C(N)c1ccc(OCCCCCOc2ccc(C(=N)N)cc2)cc1 [Pentamidine, pentamidine]	40

Same assay, conditions: compound at 5 μg/ml; strain and antibiotic not stated in Table 8

Structure (SMILES)	Sensitization fold
Cc1cc(COc2ccc(C(=N)N)cc2F)cc(COc2ccc(C(=N)N)cc2F)c1 [Compound E-18, 1,3-Bis {[4-amidino-2-fluoro)-phenoxymethyl]}-5-methyl-benzene dihydrochloride]	32
CC(C)(C)c1cc(COc2ccc(C(=N)N)cc2F)cc(COc2ccc(C(=N)N)cc2F)c1 [Compound E-15, 1,3-bis {[4-amidino-2-fluoro]-phenoxymethyl]}-5-(tert-butyl)benzene dihydrochloride]	256
N=C(N)c1ccc(OCc2cccc(COc3ccc(C(=N)N)cc3F)c2F)c(F)c1 [Compound A-1, 4,4′-(((2-Fluoro-1,3-phenylene)bis(methylene))bis(oxy))bis(3-fluorobenzimidamide) Dihydrochloride]	8

Tested on: H9c2 cells
Experiment: Cytotoxicity in H9c2 cells (CCK-8, 24 h)
Assay type: cell-based
Settings: not given
Procedure: H9c2 (ATCC®R-1446™) cells Were used in the studies. The H9c2 cells were maintained in DMEM (Dulbeccoa's Modified Eagle's Medium) supplemented with 10% fetal bovine serum (Mid Sci; S01520HI) and 1% penicillin-streptomycin (Sigma-Aldrich; P4333) at 37° C. with 5% CO2. The H9c2 cells were seeded in 96-well plate one day before the experiment. Different concentrations of di-amidine compounds were added into the H9c2 cells. The cells were then incubated with the compounds for 24 h at 37° C. with 5% CO2. The cell viability was tested by the CCK-8. Specifically, after 24 h incubation, 10 μL CCK-8 was added to each well. After 3 h incubation at 37° C., the absorbance at 450 nm was recorded by a plate reader. The cytoxicity in HEK293 and 3T3 cells was measured using the same procedure. Data is shown in Table 5 (NT=not toxic; --=not tested).

Structure (SMILES)	H9c2 CC^50 [µM]
CC(C)(C)c1cc(COc2ccc(C(=N)N)cc2)cc(COc2ccc(C(=N)N)cc2)c1 [drawing 873]	25
CC(C)(C)c1cc(COc2ccc(C(=N)N)cc2F)cc(COc2ccc(C(=N)N)cc2F)c1 [drawing 883]	25
COc1cc(C2=NCCN2)ccc1OCc1cccc(COc2ccc(C3=NCCN3)cc2OC)c1F [drawing 868]	50
Cc1cc(COc2ccc(NC(=N)N)cc2)cc(COc2ccc(NC(=N)N)cc2)c1	100
Fc1cc(C2=NCCN2)ccc1OCc1cccc(COc2ccc(C3=NCCN3)cc2F)c1F	50
Cn1c(-c2ccc(-c3ccc(C(=N)N)cc3)s2)nc2cc(-c3ccc(C(=N)N)cc3)ccc21 [drawing 848]	50
N=C(N)c1ccc(OCc2cccc(COc3ccc(C(=N)N)cc3)c2)cc1 [drawing 853]	50
c1cc(COc2ccc(C3=NCCN3)cc2)cc(COc2ccc(C3=NCCN3)cc2)c1 [drawing 865]	<12
COc1cc(C(=N)N)ccc1OCc1cccc(COc2ccc(C(=N)N)cc2OC)c1F [drawing 872]	12.5
CCCCc1cc(OCc2ccc(C(=N)N)cc2)cc(OCc2ccc(C(=N)N)cc2)c1 [drawing 887]	25
N=C(N)c1ccc(OCCCCCCCCOc2ccc(C(=N)N)cc2)cc1 [drawing 855]	<5
N=C(N)c1ccc(Oc2ccc(C(=N)N)cc2)cc1 [drawing 851]	50
Cn1c(CCCCc2nc3ccc(C(=N)N)cc3n2C)nc2ccc(C(=N)N)cc21 [drawing 850]	50
N=C(N)c1ccc(OCc2cccc(COc3ccc(C(=N)N)cc3)c2F)cc1 [drawing 859]	50
N=C(N)c1ccc2nc(-c3ccc(OCC(F)(F)C(F)(F)COc4ccc(-c5nc6ccc(C(=N)N)cc6[nH]5)cc4)cc3)[nH]c2c1 [drawing 847]	50
Fc1c(COc2ccc(C3=NCCN3)cc2)cccc1COc1ccc(C2=NCCN2)cc1 [drawing 866]	25
N=C(N)c1ccc(OCOc2ccc(C(=N)N)cc2)cc1 [drawing 858]	50
N=C(N)c1ccc(OCc2ccc(-c3ccc(C(=N)N)cc3)cc2)cc1 [drawing 852]	50
Cc1cc(-c2nc3cc(C(=N)N)ccc3n2C)sc1-c1ccc(OCCCCOc2ccc(C(=N)N)cc2)cc1 [drawing 856]	50
N=C(N)c1ccc(OCc2cccc(COc3ccc(C(=N)N)cc3)n2)cc1 [drawing 857]	50
N=C(N)c1ccc(OCCCCCCOc2ccc(C(=N)N)cc2)cc1 [drawing 862]	<5
N=C(N)c1ccc2[nH]c(-c3ccc(-c4ccc(-c5ccc(-c6ccc(-c7nc8cc(C(=N)N)ccc8[nH]7)cc6)s5)s4)cc3)nc2c1 [drawing 849]	50
N=C(N)c1ccc(OCc2cccc(COc3ccc(C(N)=O)cc3)n2)cc1	50
N=C(N)c1ccc(COc2cc(OCc3ccc(C(=N)N)cc3)cc(C(F)(F)F)c2)cc1 [drawing 888]	50
Cn1c(CCc2nc3cc(C(=N)N)ccc3n2C)nc2cc(C(=N)N)ccc21 [drawing 860]	50

Tested on: M. smegmatis
Experiment: Antibacterial activity against M. smegmatis (MIC, OD600, 48 h)
Assay type: cell-based, Mycobacterium smegmatis
Settings: Mycolicibacterium smegmatis, MIC = 90% growth inhibition, 7H9 media, NA=no activity

Structure (SMILES)	MIC [µM]
CC(C)(C)c1cc(COc2ccc(C(=N)N)cc2)cc(COc2ccc(C(=N)N)cc2)c1 [drawing 818]	6 (≈ 2.58 µg/mL)
N=C(N)c1ccc(OCc2ccc(COc3ccc(C(=N)N)cc3)cc2)cc1 [drawing 814]	3 (≈ 1.12 µg/mL)
N=C(N)c1ccc(OCc2ccc(-c3ccc(C(=N)N)cc3)cc2)cc1 [drawing 804]	6 (≈ 2.07 µg/mL)
COc1cc(C2=NCCN2)ccc1OCc1cccc(COc2ccc(C3=NCCN3)cc2OC)c1F [drawing 813]	25 (≈ 12.6 µg/mL)
Cc1cc(COc2ccc(C(=N)N)cc2)cc(COc2ccc(C(=N)N)cc2)c1 [drawing 809]	12 (≈ 4.66 µg/mL)
N=C(N)c1ccc(OCc2cccc(COc3ccc(C(=N)N)cc3)n2)cc1 [drawing 823]	12 (≈ 4.51 µg/mL)
CC(C)NC(=N)c1ccc(OCc2cccc(COc3ccc(C(=N)NC(C)C)cc3)c2F)cc1 [drawing 830]	3 (≈ 1.43 µg/mL)
Cc1cc(-c2nc3cc(C(=N)N)ccc3n2C)sc1-c1ccc(OCCCCOc2ccc(C(=N)N)cc2)cc1 [drawing 822]	3 to 6 (≈ 1.66 to 3.32 µg/mL)
c1cc(COc2ccc(C3=NCCN3)cc2)cc(COc2ccc(C3=NCCN3)cc2)c1 [drawing 810]	12 (≈ 5.12 µg/mL)
N=C(N)c1ccc(OCc2cc(COc3ccc(C(=N)N)cc3)cc(COc3ccc(C(=N)N)cc3)c2)cc1 [drawing 828]	3 to 6 (≈ 1.57 to 3.14 µg/mL)

Tested on: E. coli
Experiment: Sensitization of E. coli to erythromycin (sensitization fold from IC90, OD600, 20 h)
Assay type: cell-based, Escherichia coli
Settings: erythromycin; compound at 10 μM
Procedure: E. coli bacteria were cultured in Miller's broth at 37° C. overnight prior to treatment. B. subtilis bacteria were cultured in nutrient broth at 37° C. overnight prior to treatment. […] Bacterial density was measured based on OD600.

Structure (SMILES)	SF (E. coli) at 10 μM [μM > 32 fold]
CCCCc1cc(OCc2ccc(C(=N)N)cc2)cc(OCc2ccc(C(=N)N)cc2)c1 [drawing 749]	10
N=C(N)c1ccc(COc2cc(OCc3ccc(C(=N)N)cc3)cc(C(F)(F)F)c2)cc1 [drawing 750]	10

Same assay, conditions: erythromycin; compound at 12.5 μM; NA=no activity

Structure (SMILES)	SF (E. coli) at 12.5 μM
CC(C)(C)c1cc(COc2ccc(C(=N)N)cc2)cc(COc2ccc(C(=N)N)cc2)c1 [drawing 732]	4-fold at 12.5 μM

Same assay, conditions: erythromycin; compound at 20 μM

Structure (SMILES)	SF (E. coli) at 20 μM
CO/N=C(\N)c1ccc(OCc2cc(C)cc(COc3ccc(/C(N)=N\OC)cc3)c2)cc1 [drawing 748]	4-fold at 20 μM
COc1cc(OCc2ccc(C(=N)N)cc2)cc(OCc2ccc(C(=N)N)cc2)c1	No effect at 20 μM

Same assay, conditions: erythromycin; compound at 25 μM; NA=no activity

Structure (SMILES)	SF (E. coli) at 25 μM
Cc1cc(COc2ccc(C(=N)N)cc2F)cc(COc2ccc(C(=N)N)cc2F)c1 [drawing 747]	64-fold at 25 μM

Same assay, conditions: general statement on amidine substitution or ring restraint

Structure (SMILES)	Ability to sensitize Gram-negative bacteria (while preserving ability to sensitize some Gram-positive bacteria)
Cc1cc(COc2ccc(C(=N)NC(C)C)cc2)cc(COc2ccc(C(=N)NC(C)C)cc2)c1 [Compound C-3, 1,3-Bis {(4-isopropylamidino)-phenoxymethyl}-5-methylbenzene dihydrochloride]	greatly decrease, or even abolish

Same assay, conditions: sensitization fold = IC90 of erythromycin without/with compound; compound concentration not given; NA=no activity, T=toxic

Structure (SMILES)	SF (E. coli)
N=C(N)c1ccc(OCc2ccc(-c3ccc(C(=N)N)cc3)cc2)cc1 [drawing 711]	<2
N=C(N)c1ccc(OCc2cccc(COc3ccc(C(=N)N)cc3F)c2F)c(F)c1 [drawing 713]	6
N=C(N)c1ccc(OCc2cccc(COc3ccc(C(=N)N)cc3)c2)cc1 [drawing 712]	<2
N=C(N)c1ccc(OCc2cccc(COc3ccc(C(=N)N)cc3)c2F)cc1 [drawing 718]	<2
N=C(N)c1ccc2nc(-c3ccc(OCC(F)(F)C(F)(F)COc4ccc(-c5nc6ccc(C(=N)N)cc6[nH]5)cc4)cc3)[nH]c2c1 [drawing 706]	<2
Cc1cc(-c2nc3cc(C(=N)N)ccc3n2C)sc1-c1ccc(OCCCCOc2ccc(C(=N)N)cc2)cc1 [drawing 715]	<2

Tested on: B. subtilis
Experiment: MIC of compounds against B. subtilis (OD600, 48 h)
Assay type: cell-based
Settings: Bacillus subtilis, MIC = 90% growth inhibition, compound alone
Procedure: Bacteria were then cultured with varying concentration of the compounds shown below for 48 hours, and then bacterial density was measured based on OD600. The procedure to determine the MIC for each compound against B. subtilis was the same except that the bacteria was cultured in nutrient broth. The MIC of each compound against B. subtilis is shown in Table 2 (NA=no activity, --=not tested).

Structure (SMILES)	MIC [µM]
COc1cc(C(=N)N)ccc1OCc1cc(C)cc(COc2ccc(C(=N)N)cc2OC)c1 [drawing 768]	6

Same assay, conditions: Bacillus subtilis, compound alone at 12 μM, read-out: Growth inhibition of B. subtilis at 12 μM

Structure (SMILES)	inhibition at 12 µM [%]
COc1cc(C(=N)N)ccc1OCc1cccc(COc2ccc(C(=N)N)cc2OC)c1F [drawing 769]	50

Same assay, conditions: Bacillus subtilis, read-out: Growth inhibition of B. subtilis at 1 μM, compound alone at 1 μM

Structure (SMILES)	inhibition at 1 µM [%]
COc1cc(C(=N)N)ccc1OCc1cc(C)cc(COc2ccc(C(=N)N)cc2OC)c1 [drawing 768]	10

Same assay, conditions: Bacillus subtilis, read-out: Growth inhibition of B. subtilis at 2 μM, compound alone at 2 μM

Structure (SMILES)	inhibition at 2 µM [%]
COc1cc(C(=N)N)ccc1OCc1cc(C)cc(COc2ccc(C(=N)N)cc2OC)c1 [drawing 768]	50

Same assay, conditions: Bacillus subtilis, read-out: Growth inhibition of B. subtilis at 6 μM, compound alone at 6 μM, NA=no activity

Structure (SMILES)	inhibition at 6 µM [%]
COc1cc(C(=N)N)ccc1OCc1cccc(COc2ccc(C(=N)N)cc2OC)c1F [drawing 769]	25

Tested on: E. coli
Experiment: MIC of compounds against E. coli (OD600, 48 h)
Assay type: cell-based
Settings: Escherichia coli, compound alone at 12 μM, NA=no activity, read-out: Growth inhibition of E. coli at 12 μM

Structure (SMILES)	inhibition at 12 µM [%]
COc1cc(C(=N)N)ccc1OCc1cc(C)cc(COc2ccc(C(=N)N)cc2OC)c1 [drawing 768]	25
COc1cc(C(=N)N)ccc1OCc1cccc(COc2ccc(C(=N)N)cc2OC)c1F [drawing 769]	30

Same assay, conditions: Escherichia coli, read-out: Growth inhibition of E. coli at 25 μM, compound alone at 25 μM, NA=no activity

Structure (SMILES)	inhibition at 25 µM [%]
COc1cc(C(=N)N)ccc1OCc1cc(C)cc(COc2ccc(C(=N)N)cc2OC)c1 [drawing 768]	50
COc1cc(C(=N)N)ccc1OCc1cccc(COc2ccc(C(=N)N)cc2OC)c1F [drawing 769]	50
